Source: US5317022A, “Pharmaceutical composition and use” (priority 1991, dated 1994)
“Also recorded” adds a separate entry of the source. Counter-ions that a name gives are not always drawn. Like-named read-outs stand apart in the source and are kept apart here.

Assays:
rat [1] = test: animal or person; conditions: read-out: algolyt. test (rat) 100% activity
rat [2] = test: analgetic effect, tail flick (rat); assay type: in vivo
rat [3] = test: analgetic effect, hot plate (rat); assay type: in vivo
rabbits [4] = test: effects on respiration on conscious rabbits (III.5, Marey-drum)
Protocol: Investigation was carried out on conscious rabbits of both sexes and of 3-4 kg weight by way of a Marey-drum. Frequency and amplitude of respiration were quantitatively evaluated.

rats = test: sedative (narcosis potentiating) effect, Inactine base narcotic, rats; assay type: in vivo
Protocol: Inactine (35 mg/kg) was used as a base narcotic.
*ED500 % = dose increasing narcosis to five times the control.

mice = test: analgetic effect, writhing test (mice); assay type: in vivo
[5] = biological target: (^3 H)naloxone binding sites; test: competition binding assay with (3H)naloxone on rat brain membranes; conditions: membranes incubated with (3H)naloxone 1 nM and increasing ligand concentrations; read-out: Affinity constants (Ki nM) in competition assays
Protocol: (§1) Membrane preparation: A crude membrane fraction from rat brain (PVG/C strain) was prepared [Mol. Pharm.11 (1975) 340-351 and the protein content was defined [Anal. Biochem. 72(1976) 248-254).
(§2) The membrane suspension (200-400 μg protein) was incubated with the specific radioligand for 1 hour on ice. Incubations were terminated by rapid filtration under vacuo followed by washing with ice cold tris HCl buffer (50 mM, pH 7,4). Radioactivity was measured in a toluene based scintillation mixture on a LKB Minibeta Liquid Scintillation Spectrophotometer. Nonspecific binding was defined in the presence of 10 μM unlabeled naloxone. All assays were performed in triplicate and repeated several times. Ki values were determined from equilibrium experiments and calculated with the Tshang-Prusov equation. The data were evaluated using the Ligand program [Anal. Biol. Chem. 107 (1980) 220-239](Data shown on Table III/1).

[6] = biological target: (^3 H)naloxone binding sites; test: wash-resistant binding of (3H)naloxone, rat brain membranes; conditions: preincubated with (3H)naloxone 1 nM and test compound; remaining specific binding after several washings; average of 2-4 data; compound.HCl; read-out: Ki (nM), affinity constants
Protocol: as §1, §2
After preincubation a thorough washing was performed. [Life Sci. 32 (1983) 2777-2784]. Control values are represented by the specific binding of (3H)naloxone to membranes preincubated with a buffer and treated in the same way. Heterologous displacement experiments were used to evaluate the affinity of the investigated compounds for (^3 H)naloxone binding sites.

rabbits [7] = test: effect on respiration on conscious rabbits (III.6, type A/B/C tests); assay type: in vivo; set-up: resp. change ampl.: unit not given here
Protocol: The method as described above in Example III.5 was used on conscious rabbits of 2,5-3 kg weight. Registration was continued for 3-4 hours. The samples were injected under the skin of the neck and the respiration parameters were registered at intervals of 10 minutes.

[8] = Rattus norvegicus; read-out: tail flick (rat) ED50
[9] = Rattus norvegicus; read-out: hot plate (rat) ED50
[10] = s.c. on rats, Inactine 35 mg/kg, dose as base
[11] = Mus musculus; read-out: writhing test (mice) ED50
[12] = type A: DP 0.01 mg/kg s.c., 10'
[13] = type A: DP 0.01 mg/kg s.c., 20'
[14] = type A: DP 0.025 mg/kg s.c., 10'
[15] = type A: DP 0.025 mg/kg s.c., 20'
[16] = type A: DP 0.05 mg/kg s.c., 10'
[17] = type C: DP 0.25 mg/kg together with morphine 5 mg/kg s.c., 10'
[18] = type C: DP 0.25 mg/kg together with morphine 5 mg/kg s.c., 20'
[19] = type C: DP 0.25 mg/kg together with morphine 5 mg/kg s.c., 30'
[20] = type C: DP 0.25 mg/kg together with morphine 5 mg/kg s.c., 50'
[21] = Rattus norvegicus, read-out: tail flick (rat) ED50
[22] = Rattus norvegicus, read-out: hot plate (rat) ED50
[23] = Mus musculus, read-out: writhing test (mice) ED50
[24] = OX 0.5 mg/kg s.c. + naloxone 0.25 mg/kg, 10 min
[25] = OX 0.5 mg/kg s.c., 10 min (line before naloxone)
[26] = type A: OX 0.1 mg/kg s.c. +5 mg/kg morphine, 30 min
[27] = type A: OX 0.1 mg/kg s.c. +5 mg/kg morphine, 40 min
[28] = type A: OX 0.1 mg/kg s.c., 10 min
[29] = type A: OP 0.1 mg/kg s.c., 10 min
[30] = type A: OP 0.5 mg/kg s.c., 10 min
[31] = type A: OP 0.5 mg/kg s.c., then morphine 5 mg/kg s.c., 10 min
[32] = type A: OP 0.5 mg/kg s.c., then morphine 5 mg/kg s.c., 60 min
[33] = type B: morphine 5 mg/kg s.c., then OP 1.0 mg/kg s.c., 20 min
[34] = type B: morphine 5 mg/kg s.c., then OP 1.0 mg/kg s.c., 30 min
[35] = type C: OP 0.25 mg/kg with morphine 5 mg/kg s.c., 20 min
[36] = type C: OP 0.25 mg/kg with morphine 5 mg/kg s.c., 30 min
[37] = type C: OP 0.25 mg/kg with morphine 10 mg/kg s.c., 10 min
[38] = type C: OP 0.25 mg/kg with morphine 20 mg/kg s.c., 30 min

COc1ccc2c3c1O[C@H]1C(=NNC(N)=S)CC[C@H]4[C@@H](C2)N(C)CC[C@]314 [Dihydrocodeinone thio-semicarbazone.HCl, Dihydrocodeinone thio-semicarbazone]
ED100 (rat [1]): 5 mg/kg
ED50 (rat [2]; [8]): 0.6 mg/kg
ED50 (rat [3]; [9]): 1.7 mg/kg

COc1ccc2c3c1O[C@H]1C(=O)CC[C@H]4[C@@H](C2)N(C)CC[C@]314 [Dihydrocodeinone, reference compound]
respiration effect (rabbits [4]; 10-5500 μg/kg i.v., s.c.): depression
respiration frequency/min. (rabbits [4]; 10-5500 μg/kg i.v., s.c.): .dwnarw.
respiration volume (rabbits [4]; 10-5500 μg/kg i.v., s.c.): .dwnarw.
influence on the respiratory depression effect of morphine (in words) (rabbits [4]; rabbit, in vivo): unambiguously potentiate the respiratory depression effect of morphine
respiratory depression by the compound alone (in words) (rabbits [4]; rabbit, in vivo, sc): cause respiratory depression
ED100 (rat [1]): 4.9 mg/kg
ED50 (rat [2]; [8]): 0.98 mg/kg
ED50 (rat [3]; [9]): 2.2 mg/kg
ED500 % (dose increasing narcosis to five times the control) (rats; [10]): 1,9 mg/kg
ED50 (mice; [11]): 0.9 mg/kg

COc1ccc2c3c1O[C@H]1C(=NO)CC[C@H]4[C@@H](C2)N(C)CC[C@]314 [Dihydrocodeinone-oxime, DIHYDROCODEINON-OXIME]
ED100 (rat [1]): 25 mg/kg
ED50 (rat [2]; [8]): 3.7 mg/kg
ED50 (rat [3]; [9]): 4.2 mg/kg
Ki [5]: 52 nM
Ki [6]: 53 nM
ED50 (mice; [11]): 0.38 mg/kg

COc1ccc2c3c1O[C@H]1C(=NNc4ccccc4)CC[C@H]4[C@@H](C2)N(C)CC[C@]314 [Dihydrocodeinone-phenylhydrazone]
ED100 (rat [1]): 10.1 mg/kg
ED50 (rat [2]; [8]): 2.3 mg/kg
ED50 (rat [3]; [9]): 2.4 mg/kg
Ki [5]: 323 nM
Ki [6]: 323 nM
ED500 % (dose increasing narcosis to five times the control) (rats; [10]): 3,5 mg/kg
resp. change ampl. (rabbits [7]; [12]): 0
resp. change fr/min (rabbits [7]; [12]): +85
resp. change ampl. (rabbits [7]; [13]): 0
resp. change fr/min (rabbits [7]; [13]): +96
resp. change ampl. (rabbits [7]; [14]): 0
resp. change fr/min (rabbits [7]; [14]): +114
resp. change ampl. (rabbits [7]; [15]): 0
resp. change fr/min (rabbits [7]; [15]): +114
resp. change ampl. (rabbits [7]; [16]): 0
resp. change fr/min (rabbits [7]; [16]): +132
resp. change ampl. (rabbits [7]; [17]): 0
resp. change fr/min (rabbits [7]; [17]): +39
resp. change ampl. (rabbits [7]; [18]): 0
resp. change fr/min (rabbits [7]; [18]): +19
resp. change ampl. (rabbits [7]; [19]): 0
resp. change fr/min (rabbits [7]; [19]): -3
resp. change ampl. (rabbits [7]; [20]): 0
resp. change fr/min (rabbits [7]; [20]): -4

COc1ccc2c3c1O[C@H]1C(=NNC(N)=O)CC[C@H]4[C@@H](C2)N(C)CC[C@]314 [Dihydrocodeinone-semicarbazone.HCl, dihydrocodeinone-semicarbazone]
ED100 (rat [1]): 10 mg/kg
ED50 (rat [2]; [8]): 0.35 mg/kg
ED50 (rat [3]; [9]): 0.38 mg/kg
hot plate (rat) ED50 (rat [3]; rat): 0,38 mg/kg
ED500 % (dose increasing narcosis to five times the control) (rats; [10]): 1,0 mg/kg

COc1ccc2c3c1O[C@H]1C(=NO)CC[C@@]4(O)[C@@H](C2)N(C)CC[C@]314 [Oxycodone-oxime, 14-HYDROXY-DIHYDROCODEINONE-OXIME]
ED100 (rat [1]): 10 mg/kg
ED50 (rat [2]; [21]): 1 mg/kg
ED50 (rat [3]; [22]): 1.8 mg/kg
Ki [5]: 32 nM
Ki [6]: 32 nM
ED500 % (dose increasing narcosis to five times the control) (rats; rat, in vivo): 0,5 mg/kg
potentiation of Inactine narcosis (in words) (rats; rat, in vivo): most effectively prolongated
ED50 (mice; [23]): 0.11 mg/kg
resp. change ampl. (rabbits [7]; OX 0.005 mg/kg s.c., 30 min): +30
resp. change fr/min (rabbits [7]; OX 0.005 mg/kg s.c., 30 min): +30
resp. change ampl. (rabbits [7]; OX 0.025 mg/kg s.c., 30 min): 0
resp. change fr/min (rabbits [7]; OX 0.025 mg/kg s.c., 30 min): +28
resp. change ampl. (rabbits [7]; OX 0.1 mg/kg s.c., 30 min): +40
resp. change fr/min (rabbits [7]; OX 0.1 mg/kg s.c., 30 min): +47
resp. change ampl. (rabbits [7]; [24]): +50
resp. change fr/min (rabbits [7]; [24]): +50
resp. change ampl. (rabbits [7]; [25]): -50
resp. change fr/min (rabbits [7]; [25]): -50
respiration number (in words) (rabbits [7]; small doses): considerably increase the respiration number
resp. change ampl. (rabbits [7]; [26]): 0
resp. change fr/min (rabbits [7]; [26]): +71
resp. change ampl. (rabbits [7]; [27]): -40
resp. change fr/min (rabbits [7]; [27]): -29
resp. change ampl. (rabbits [7]; [28]): +20
resp. change fr/min (rabbits [7]; [28]): +57

COc1ccc2c3c1O[C@H]1C(=NNc4ccccc4)CC[C@@]4(O)[C@@H](C2)N(C)CC[C@]314 [Oxycodone-phenylhydrazone, 14-OH-DIHYDROCODEINONE-PHENYLHYDRAZONE (CIS)]
influence on the respiratory depression effect of morphine (in words) (rabbits [4]; rabbit, in vivo): partially antagonizes the effect of morphine
respiration effect (rabbits [4]; rabbit, in vivo, sc): no change; also recorded: slight stym
ED100 (rat [1]): 10 mg/kg
ED50 (rat [2]; [21]): 1.2 mg/kg
ED50 (rat [3]; [22]): 0.8 mg/kg
Ki [5]: 1150 nM
Ki [6]: 1150 nM
ED500 % (dose increasing narcosis to five times the control) (rats; rat, in vivo): 1,5 mg/kg
ED50 (mice; [23]): 1.2 mg/kg
resp. change ampl. (rabbits [7]; [29]): +20
resp. change fr/min (rabbits [7]; [29]): +33
resp. change ampl. (rabbits [7]; [30]): 0
resp. change fr/min (rabbits [7]; [30]): +16
resp. change ampl. (rabbits [7]; [31]): -20
resp. change fr/min (rabbits [7]; [31]): -17
resp. change ampl. (rabbits [7]; [32]): 0
resp. change fr/min (rabbits [7]; [32]): 0
resp. change ampl. (rabbits [7]; [33]): +15
resp. change fr/min (rabbits [7]; [33]): -16
resp. change ampl. (rabbits [7]; [34]): +20
resp. change fr/min (rabbits [7]; [34]): -6
resp. change ampl. (rabbits [7]; [35]): +20
resp. change fr/min (rabbits [7]; [35]): +44
resp. change ampl. (rabbits [7]; [36]): +30
resp. change fr/min (rabbits [7]; [36]): +92
resp. change ampl. (rabbits [7]; [37]): +20
resp. change fr/min (rabbits [7]; [37]): +23
resp. change ampl. (rabbits [7]; [38]): 0
resp. change fr/min (rabbits [7]; [38]): -8

COc1ccc2c3c1O[C@H]1C(=NNC(N)=S)CC[C@@]4(O)[C@@H](C2)N(C)CC[C@]314 [Oxycodone-thiosemicarbazone.HCl, Oxycodone-thiosemicarbazone]
ED100 (rat [1]): 100 mg/kg
ED50 (rat [2]; [8]): 4.5 mg/kg
ED50 (rat [3]; [9]): 8.5 mg/kg

CN1CC[C@]23c4c5ccc(O)c4O[C@H]2C(=NN)CC[C@H]3[C@H]1C5 [dihydromorphinone hydrazone]
Ki [5]: 6 nM

CN1CC[C@]23c4c5ccc(O)c4O[C@H]2C(=NO)CC[C@H]3[C@H]1C5 [dihydromorphinone oxime]
Ki [5]: 2 nM

CN1CC[C@]23c4c5ccc(O)c4O[C@H]2C(=NNc2ccccc2)CC[C@H]3[C@H]1C5 [dihydromorphinone phenylhydrazone]
Ki [5]: 5 nM

CN1CC[C@]23c4c5ccc(O)c4O[C@H]2C(=NNC(N)=O)CC[C@H]3[C@H]1C5 [dihydromorphinone semicarbazone]
Ki [5]: 3 nM

CN1CC[C@]23c4c5ccc(O)c4O[C@H]2C(=NN)CC[C@@]3(O)[C@H]1C5 [oxymorphone hydrazone]
Ki [5]: 2 nM

CN1CC[C@]23c4c5ccc(O)c4O[C@H]2C(=NO)CC[C@@]3(O)[C@H]1C5 [oxymorphone oxime]
Ki [5]: 2 nM

CN1CC[C@]23c4c5ccc(O)c4O[C@H]2C(=NNc2ccccc2)CC[C@@]3(O)[C@H]1C5 [oxymorphone phenylhydrazone]
Ki [5]: 20 nM

CN1CC[C@]23c4c5ccc(O)c4O[C@H]2C(=NNC(N)=O)CC[C@@]3(O)[C@H]1C5 [oxymorphone semicarbazone]
Ki [5]: 4 nM
